For 14 compounds, TGI and GI50 results are on record in PubChem BioAssay (NCI).

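Tested at 5 concentrations; 48 h exposure; 96-well plates; endpoints linearly interpolated, else capped at highest concentration. GI50 is the concentration that inhibits growth by half. TGI marks complete inhibition of growth.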

Some test systems named below: 786-0 renal; ACHN renal; HOP-92 NSCLC; NCI-H23 lung; OVCAR-5 ovarian; RXF 393 renal; SF-268 CNS; SK-MEL-28 melanoma; SNB-19 CNS; K-562 leukemia.
Common to all, as to assay: NCI tumour cell line growth inhibition, 48 h

As for `N#CC1=C2Sc3ccccc3N2[C@H](c2ccccc2)[C@H]2COC(=O)[C@@H]12`, the TGI in the assay with 786-0 renal, in the assay on ACHN renal, in the assay with HOP-92 NSCLC, in the assay with NCI-H23 lung, in the assay on OVCAR-5 ovarian and with RXF 393 renal was greater than 100 µM each time. In addition, the TGI was 74.1 µM in the assay with SF-268 CNS, greater than 100 µM with SK-MEL-28 melanoma and greater than 100 µM in the assay with SNB-19 CNS.
On to `CC(=O)O[C@H]1CC[C@@]2(C)C(=CC[C@@H]3[C@@H]2CC[C@]2(C)C(c4cccnc4)=CC[C@@H]32)C1`, for which the GI50 in the assay on ACHN renal was 4.88 µM; in the assay on HOP-92 NSCLC, 3.08 µM; in the assay on K-562 leukemia, 4.04 µM; in the assay on NCI-H23 lung it was 6.6 µM; in the assay on OVCAR-5 ovarian it was 18.7 µM; with SF-268 CNS, 9.61 µM. Moreover, the GI50 with SK-MEL-28 melanoma is 3.53 µM; in the assay on SNB-19 CNS it was 24.1 µM. The TGI is 43.9 µM with ACHN renal; 32.5 µM with HOP-92 NSCLC; greater than 100 µM with K-562 leukemia; greater than 100 µM in the assay with NCI-H23 lung; greater than 100 µM with OVCAR-5 ovarian; greater than 100 µM in the assay with SF-268 CNS. In addition, the TGI in the assay with SK-MEL-28 melanoma and in the assay on SNB-19 CNS was greater than 100 µM throughout.
For the compound `CCOC(=O)/C(O)=C1\C(=O)N(C)C(=O)C1c1ccc(OC)c(OC)c1` (configuration not stated), the TGI in the assay with HOP-92 NSCLC, in the assay with K-562 leukemia, with NCI-H23 lung, in the assay on OVCAR-5 ovarian, in the assay with RXF 393 renal and in the assay with SF-268 CNS was greater than 100 µM in each case. In addition, the TGI in the assay on SK-MEL-28 melanoma and in the assay with SNB-19 CNS was greater than 100 µM each time.
On to `O=C1C(Br)=CC2([N+](=O)[O-])CCNc3c(O)c4c5c(c3C2=C1Br)=NCCC=5C=N4` (configuration not stated), for which the TGI came to 2.07 µM in the assay with HOP-92 NSCLC; 2.33 µM in the assay with K-562 leukemia; 3.41 µM in the assay on NCI-H23 lung; 2.39 µM in the assay with OVCAR-5 ovarian; 7.76 µM with RXF 393 renal; 6.27 µM in the assay with SF-268 CNS. The TGI with SK-MEL-28 melanoma was found to be 9.95 µM; in the assay with SNB-19 CNS, 9.72 µM.
As to `CCN1CC(C)Cn2c(=O)[nH]c3cc(Br)cc1c32` (configuration not stated), the TGI with 786-0 renal was greater than 100 µM; in the assay on ACHN renal it was greater than 100 µM; in the assay with K-562 leukemia it was greater than 100 µM; with NCI-H23 lung, greater than 100 µM; in the assay with OVCAR-5 ovarian, greater than 100 µM; in the assay with RXF 393 renal, 37.3 µM. Further, the TGI in the assay on SF-268 CNS, with SK-MEL-28 melanoma and with SNB-19 CNS was greater than 100 µM in each case.
For the compound `COc1ccc2c3c1OC1CC(O)C=CC31CCN(C)C2` (configuration not stated), the TGI in the assay with HOP-92 NSCLC is greater than 150 µM; in the assay on K-562 leukemia it was greater than 150 µM; in the assay on NCI-H23 lung, greater than 150 µM; in the assay on OVCAR-5 ovarian, greater than 150 µM; in the assay with RXF 393 renal, greater than 150 µM; in the assay with SF-268 CNS, greater than 91.8 µM. The TGI in the assay with SK-MEL-28 melanoma and in the assay with SNB-19 CNS was greater than 150 µM each time.
Consider `CCC(C)[C@H](NC(=O)N[C@H](C)c1ccccc1)C(=O)OC` (some centres not stated), for which the TGI in the assay on 786-0 renal, with ACHN renal, with HOP-92 NSCLC, in the assay with K-562 leukemia, in the assay with NCI-H23 lung and with OVCAR-5 ovarian was greater than 100 µM in each case. Also, the TGI in the assay with SK-MEL-28 melanoma and in the assay on SNB-19 CNS was greater than 100 µM each time.
In the case of `COC1C(O)CC(OC2C(C)OC(Oc3cc(O)c4c(O)c5c(cc4c3)C[C@@H]([C@H](OC)C(=O)[C@@H](O)[C@@H](C)O)[C@H](OC3CC(OC4CC(OC6CC(C)(O)C(O)C(C)O6)C(O)C(C)O4)C(O)C(C)O3)C5=O)CC2OC(C)=O)OC1C` (some centres not stated), the TGI in the assay on 786-0 renal, with ACHN renal, in the assay on K-562 leukemia, with NCI-H23 lung, in the assay on OVCAR-5 ovarian and in the assay on SF-268 CNS was greater than 100 µM each time. Moreover, the TGI with SK-MEL-28 melanoma and in the assay with SNB-19 CNS was greater than 100 µM each time.
As to `CN(C)C(=S)N/N=C\C=N/NC(=S)N(C)C`, the TGI in the assay with 786-0 renal was greater than 100 µM; in the assay with HOP-92 NSCLC it was greater than 100 µM; in the assay with K-562 leukemia, greater than 100 µM; with NCI-H23 lung it was greater than 58.8 µM; in the assay on OVCAR-5 ovarian, greater than 100 µM; in the assay on SF-268 CNS it was greater than 20.2 µM. Moreover, the TGI with SK-MEL-28 melanoma and with SNB-19 CNS was greater than 100 µM in each case.
Regarding `Cc1c(C)c(C)c(-n2[nH]c(=O)n(C)c2=O)c(C)c1C`, the TGI with 786-0 renal, in the assay on ACHN renal, with HOP-92 NSCLC, in the assay on K-562 leukemia, with NCI-H23 lung and in the assay with OVCAR-5 ovarian was greater than 100 µM in each case. For the same compound, the TGI in the assay with SF-268 CNS, in the assay on SK-MEL-28 melanoma and in the assay on SNB-19 CNS was greater than 100 µM in each case.
With `N/N=C(\C(=O)Nc1c(Cl)cc([N+](=O)[O-])cc1Cl)C(c1cnc2ccc([N+](=O)[O-])cc2n1)[N+](=O)[O-]` (configuration not stated), the TGI in the assay with ACHN renal, in the assay with HOP-92 NSCLC, with K-562 leukemia, in the assay with NCI-H23 lung, with OVCAR-5 ovarian and in the assay on RXF 393 renal was greater than 100 µM throughout. The TGI with SF-268 CNS, with SK-MEL-28 melanoma and in the assay on SNB-19 CNS was greater than 100 µM in each case.
For `CCC1C(=O)C[C@H]2[C@@H]3C(O)CC4=CC(=O)CC[C@]4(C)[C@H]3CC[C@]12C` (some centres not stated), the TGI in the assay with 786-0 renal, in the assay with ACHN renal, in the assay on HOP-92 NSCLC, in the assay on K-562 leukemia, with NCI-H23 lung and with OVCAR-5 ovarian was greater than 50 µM each time. Besides, the TGI in the assay on SF-268 CNS, with SK-MEL-28 melanoma and with SNB-19 CNS was greater than 50 µM each time.
Consider `Cn1ccnc1Sc1ccc(/C=N/NC(=O)c2ccccc2O)cc1[N+](=O)[O-]`, for which the TGI in the assay on 786-0 renal, with ACHN renal, in the assay with HOP-92 NSCLC, with NCI-H23 lung, in the assay on OVCAR-5 ovarian and in the assay with RXF 393 renal was greater than 100 µM in each case. Besides, the TGI in the assay on SF-268 CNS, with SK-MEL-28 melanoma and in the assay with SNB-19 CNS was greater than 100 µM each time.
Take `COc1cc(-c2nc3cc(F)ccc3s2)ccc1O`: the TGI in the assay with 786-0 renal, in the assay with ACHN renal, in the assay with K-562 leukemia, with NCI-H23 lung, in the assay on OVCAR-5 ovarian and with RXF 393 renal was greater than 100 µM in each case. Further, the TGI with SF-268 CNS, with SK-MEL-28 melanoma and with SNB-19 CNS was greater than 100 µM each time.
